From publication PMC4744544 (Analytical biochemistry, 2015)

What was measured:
Dgt = target: T1, Dgt (Escherichia coli, UniProt P15723); experiment: discontinuous HPLC of deoxyguanosine, Michaelis-Menten fit; format: biochemical; conditions: 20 mM Tris-HCl pH 8.0; 5 mM MgCl2; 30 °C; Dgt 0.2 nM hexamer
T1 sequence (P15723 2-505): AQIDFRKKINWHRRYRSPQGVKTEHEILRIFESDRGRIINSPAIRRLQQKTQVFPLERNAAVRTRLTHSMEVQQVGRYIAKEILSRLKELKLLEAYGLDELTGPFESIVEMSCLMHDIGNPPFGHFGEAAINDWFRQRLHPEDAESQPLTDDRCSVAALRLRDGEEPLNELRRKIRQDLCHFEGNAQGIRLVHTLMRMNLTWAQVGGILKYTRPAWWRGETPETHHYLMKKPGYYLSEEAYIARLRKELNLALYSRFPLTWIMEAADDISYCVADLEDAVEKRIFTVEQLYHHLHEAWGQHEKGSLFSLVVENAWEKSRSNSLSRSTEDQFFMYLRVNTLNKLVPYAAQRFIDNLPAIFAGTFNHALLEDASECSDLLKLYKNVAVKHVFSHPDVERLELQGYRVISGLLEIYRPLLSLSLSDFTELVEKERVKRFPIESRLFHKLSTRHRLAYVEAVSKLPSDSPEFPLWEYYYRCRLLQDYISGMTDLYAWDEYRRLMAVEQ

[1] = tested on: Purine Nucleoside Phosphorylase (PNPase; EC 2.4.2.1); experiment: XOD-coupled absorbance at […] nm, initial velocities, Michaelis-Menten fit; format: biochemical; conditions: 100 mM Tris-HCl pH 8; 5 mM KH2PO4; PNPase 50 mU/mL; XOD 500 mU/mL as coupling enzyme

Km [1] | Compound | Km (Dgt)
– | Nc1nc2c(ncn2[C@H]2C[C@H](O)[C@@H](COP(=O)(O)OP(=O)(O)OP(=O)(O)O)O2)c(=O)[nH]1 [dGTP] | the best fit to the data is a simple Michaelis-Menten curve
110 ± 13 µM | Nc1nc2c(ncn2[C@H]2C[C@H](O)[C@@H](CO)O2)c(=O)[nH]1 [deoxyguanosine] | –
